The results in this text go back to ChEMBL document CHEMBL3868621, “A novel adamantane thiadiazole derivative induces mitochondria-mediated apoptosis in lung carcinoma cell line” (Bioorg Med Chem, 2017).

Each structure is given as a SMILES string. Active and inactive are the calls of the source. No cut-off for these calls is given here.

Data set [1] in a line: Cytotoxicity against human PC3 cells assessed as decrease in cell viability after 24 hrs by MTT assay. As to conditions: PC-3, 24 h. In kind it is functional, cell-based. In general terms: Tetrazolium assays rely on reduction of a dye to a coloured formazan, in cell work by metabolically active cells.
A short description of data set [2]: Cytotoxicity against human HCT116 cells assessed as decrease in cell viability after 24 hrs by MTT assay. The class given is functional, cell-based. As to conditions: HCT-116, 24 h.
Data set [3] can be described thus: Cytotoxicity against human A549 cells assessed as decrease in cell viability after 24 hrs by MTT assay. As to conditions: A549, 24 h. The class given is functional, cell-based.
Data set [4] in a line: Cytotoxicity against HFB4 cells assessed as decrease in cell viability after 24 hrs by MTT assay. In kind it is toxicity, cell-based. The note with it: human.
A short description of data set [5]: Cell cycle arrest in human A549 cells assessed as accumulation at G0/G1 phase at 0.087 mM after 24 hrs by propidium iodide staining based flow cytometry (reference value: 33.96%). In kind it is functional. (In general: A flow cytometer gives signals particle by particle.)
The nature of data set [6]: Cell cycle arrest in human A549 cells assessed as accumulation at S phase at 0.087 mM after 24 hrs by propidium iodide staining based flow cytometry (reference value: 34.42%). In kind it is functional.
The nature of data set [7]: Cell cycle arrest in human A549 cells assessed as accumulation at G2/M phase at 0.087 mM after 24 hrs by propidium iodide staining based flow cytometry (reference value: 26.63%). The class given is functional.
The test system of data set [8] is A549. The experiment in a line: Induction of apoptosis in human A549 cells assessed as viable cells at 0.087 mM after 24 hrs by annexin V/propidium iodide double staining based flow cytometry (reference value: 98.85%). The class given is functional. As to conditions: A549, 24 h, read-out: Activity.
The subject of data set [9] is A549. The experiment in a line: Induction of apoptosis in human A549 cells assessed as early apoptotic cells at 0.087 mM after 24 hrs by annexin V/propidium iodide double staining based flow cytometry (reference value: 0.91%). In kind it is functional.
The test system of data set [10] is A549. Kind of data set: Induction of apoptosis in human A549 cells assessed as late apoptotic cells at 0.087 mM after 24 hrs by annexin V/propidium iodide double staining based flow cytometry (reference value: 0.21%). The class given is functional.
Data set [11] relates to A549. Kind of data set: Induction of apoptosis in human A549 cells assessed as necrotic cells at 0.087 mM after 24 hrs by annexin V/propidium iodide double staining based flow cytometry (reference value: 0.02%). The class given is functional.
Data set [12] has as its system A549. Kind of data set: Induction of apoptosis in human A549 cells assessed as viable cells at 0.17 mM after 48 hrs by annexin V/propidium iodide double staining based flow cytometry (reference value: 98.6%). In kind it is functional. The note with it: A549, 48 h, read-out: Activity.
In data set [13] the test system is A549. The experiment in a line: Induction of apoptosis in human A549 cells assessed as early apoptotic cells at 0.17 mM after 48 hrs by annexin V/propidium iodide double staining based flow cytometry (reference value: 1.27%). In kind it is functional.
For data set [14], the system named is A549. Kind of data set: Induction of apoptosis in human A549 cells assessed as late apoptotic cells at 0.17 mM after 48 hrs by annexin V/propidium iodide double staining based flow cytometry (reference value: 0.08%). The class given is functional.
Data set [15] deals with A549. The experiment in a line: Induction of apoptosis in human A549 cells assessed as necrotic cells at 0.17 mM after 48 hrs by annexin V/propidium iodide double staining based flow cytometry (reference value: 0%). In kind it is functional.
Data set [16] relates to A549. Kind of data set: Induction of apoptosis in human A549 cells after 24 to 48 hrs by annexin V/propidium iodide double staining based flow cytometry. The class given is functional, cell-based.
Data set [17] concerns A549. The experiment in a line: Induction of apoptosis in human A549 cells at 0.087 to 0.17 mM by annexin V/propidium iodide double staining based flow cytometry. In kind it is functional, cell-based. The note with it: TDE = time-dependent effect.
For data set [18], the system named is A549. Kind of data set: Induction of apoptosis in human A549 cells assessed as increase in caspase-3 activity at 0.17 mM using Ac-DEVD-pNA as substrate after 48 hrs by colorimetric assay (reference value: 0.005). In kind it is functional.
For data set [19], the system named is A549. Kind of data set: Effect on p53 expression in human A549 cells assessed as ratio of p53 to beta-actin mRNA level at 0.17 mM by qRT-PCR analysis (reference value: 10.87). The class given is functional. For orientation: Real-time PCR tracks product formation cycle by cycle.
For data set [20], the system named is A549. Kind of data set: Effect on caspase-3 expression in human A549 cells assessed as ratio of caspase-3 to beta-actin mRNA level at 0.17 mM by qRT-PCR analysis (reference value: 6.398). The class given is functional.
In data set [21] the test system is A549. The experiment in a line: Effect on Bcl2 expression in human A549 cells assessed as ratio of Bcl-2 to beta-actin mRNA level at 0.17 mM by qRT-PCR analysis (reference value: 15.0312). The class given is functional.
For data set [22], the system named is A549. Kind of data set: Effect on Bax expression in human A549 cells assessed as ratio of Bax to beta-actin mRNA level at 0.17 mM by qRT-PCR analysis (reference value: 9.0641). In kind it is functional.
In data set [23] the test system is A549. The experiment in a line: Induction of morphological changes in human A549 cells assessed as small membrane protrusions on cell surface at 0.087 mM after 24 hrs by atomic force microscopic imaging analysis. The class given is functional, cell-based.
Data set [24] deals with A549. The experiment in a line: Induction of morphological changes in human A549 cells assessed as larger uplifted particles on cell surface at 0.087 mM after 24 hrs by atomic force microscopic imaging analysis. In kind it is functional, cell-based.
Data set [25] concerns A549. Kind of data set: Induction of morphological changes in human A549 cells assessed as large uplifted structures on cell surface by measuring particle length at 0.087 mM after 24 hrs by atomic force microscopic imaging analysis (reference value: 0.161 micrometer). In kind it is functional.
In data set [26] the test system is A549. The experiment in a line: Induction of morphological changes in human A549 cells assessed as large uplifted structures on cell surface by measuring average particle height at 0.087 mM after 24 hrs by atomic force microscopic imaging analysis (reference value: 0.144 micrometer). The class given is functional.
For data set [27], the system named is A549. Kind of data set: Induction of morphological changes in human A549 cells assessed as large uplifted structures on cell surface by measuring particle width at 0.087 mM after 24 hrs by atomic force microscopic imaging analysis (reference value: 0.147 micrometer). In kind it is functional.
The subject of data set [28] is A549. Kind of data set: Induction of morphological changes in human A549 cells assessed as cell surface damage by measuring average roughness value at 0.087 mM after 24 hrs by atomic force microscopic imaging analysis (reference value: 1.11 micrometer). The class given is functional.
In data set [29] the test system is A549. The experiment in a line: Induction of morphological changes in human A549 cells assessed as cell shrinkage at 0.17 mM after 72 hrs by uranyl acetate/lead citrate staining based transmission electron microscopic imaging analysis. The class given is functional.
Data set [30] relates to A549. The experiment in a line: Induction of morphological changes in human A549 cells assessed as increased cellular granularity at 0.17 mM after 72 hrs by uranyl acetate/lead citrate staining based transmission electron microscopic imaging analysis. In kind it is functional, cell-based.
Data set [31] concerns A549. Kind of data set: Induction of morphological changes in human A549 cells assessed as change in mitochondrial number at 0.17 mM after 72 hrs by uranyl acetate/lead citrate staining based transmission electron microscopic imaging analysis. In kind it is functional, cell-based.
Data set [32] relates to A549. Kind of data set: Induction of morphological changes in human A549 cells assessed as change in mitochondrial morphology at 0.17 mM after 72 hrs by uranyl acetate/lead citrate staining based transmission electron microscopic imaging analysis. The class given is functional, cell-based.
For data set [33], the system named is A549. Kind of data set: Induction of morphological changes in human A549 cells assessed as nuclear chromatin condensation and margination at 0.17 mM after 72 hrs by uranyl acetate/lead citrate staining based transmission electron microscopic imaging analysis. In kind it is functional, cell-based.
The test system of data set [34] is A549. Kind of data set: Induction of morphological changes in human A549 cells assessed as formation of membrane blebs at 0.17 mM after 72 hrs by uranyl acetate/lead citrate staining based transmission electron microscopic imaging analysis. In kind it is functional, cell-based.
The subject of data set [35] is A549. Kind of data set: Induction of morphological changes in human A549 cells assessed as formation of apoptotic bodies at 0.17 mM after 72 hrs by uranyl acetate/lead citrate staining based transmission electron microscopic imaging analysis. The class given is functional, cell-based.
Data set [36] has as its system A549. Kind of data set: Induction of morphological changes in human A549 cells assessed as reduction in nucleus volume at 0.17 mM after 72 hrs by uranyl acetate/lead citrate staining based transmission electron microscopic imaging analysis. In kind it is functional, cell-based.

One may read the IC50 as the concentration at which inhibition is half-maximal. With `O=C(Nc1ccccc1)c1nn(-c2ccccc2)/c(=N/NC(=O)C23CC4CC(CC(C4)C2)C3)s1`, the values for the IC50 in data set [1], in data set [2] and in data set [3] were 163 µM, 168 µM and 87 µM, respectively. Moreover, the IC50 at 24 h in data set [4] is 218 µM. In addition, the Activity in data set [5] amounted to 29.2%; in data set [6], 68.9%; in data set [7] it was 1.97%; with A549 [9], 10.36%; with A549 [10] it was 0.61%; with A549 [11] it was 0%. Moreover, the Activity in the data set with A549 [13] was 16.2%; in the data set on A549 [14], 0.18%; in the data set with A549 [15] it was 0%; in the data set with A549 [16] it was “Dose-dependent effect”; in the data set on A549 [17] it was “Tde”; in the data set with A549 [25], 0.142 um. Besides, the Activity in the data set on A549 [26] is 0.161 um; in the data set with A549 [27], 0.134 um; with A549 [28] it was 1.29 um. In addition, the viability at 87 µM in the data set with A549 [8] came out at 89%. For the same compound, the viability at 170 µM in the data set with A549 [12] stood at 83.6%. Moreover, the OD in the data set on A549 [18] was determined as 0.021. The Ratio in the data set with A549 [19] is on record as 13.73; in the data set with A549 [20], 12.327; with A549 [21] it was 8.323; in the data set with A549 [22], 18.781. Further, the outcome in the data set on A549 [23], in the data set with A549 [24], in the data set with A549 [29], in the data set on A549 [30], with A549 [31] and in the data set on A549 [32] was Active. For the same compound, the outcome in the data set on A549 [33], in the data set with A549 [34], with A549 [35] and with A549 [36] was Active.
Consider `O=c1[nH]cc(F)c(=O)[nH]1` [FLUOROURACIL], for which the figures for the IC50 in [1], in [2] and in data set [3] were 1200 µM, 2000 µM and 2900 µM, respectively. Moreover, in data set [4], the IC50 at 24 h is above 5000 µM.
